Results taken from ChEMBL document CHEMBL1136279, “Synthesis and insulin-sensitizing activity of a novel kind of benzopyran derivative” (2003).

Assays:
3T3-L1 [1] = experiment: Effective concentration for enhancement of insulin-induced triglyceride accumulation in 3T3-L1 cells; assay type: functional; settings: Mus musculus
3T3-L1 [2] = experiment: Percentage of rosiglitazone response for insulin-sensitizing activity at 1 uM concentration in 3T3-L1 cells; assay type: functional, Mus musculus

In the case of COC(=O)C1Cc2ccc(OCCN(C)c3nc4ccccc4o3)cc2OC1=O (stereo not drawn), the EC30 (3T3-L1 [1]) is reported as 219 nM and the Insulin-sensitizing activity (3T3-L1 [2]) is reported as 108%.

COC(=O)C1Cc2ccc(OCCc3nc(-c4ccccc4)oc3C)cc2OC1=O (stereo not drawn) showed an EC30 (3T3-L1 [1]) of 15.6 nM and an Insulin-sensitizing activity (3T3-L1 [2]) of 132%.

O=C(O)c1cc2ccc(OCCn3ccc4ccccc43)cc2oc1=O was tested, and the Insulin-sensitizing activity (3T3-L1 [2]) was 25%.

Cc1oc(-c2ccccc2)nc1CCOc1ccc2c(c1)OC(=O)C(C(=O)O)C2 (stereo not drawn) showed an EC30 (3T3-L1 [1]) of 110 nM and an Insulin-sensitizing activity (3T3-L1 [2]) of 98%.

CCc1ccc(CCOc2ccc3cc(C(=O)O)c(=O)oc3c2)nc1 was tested, and the Insulin-sensitizing activity (3T3-L1 [2]) was 15%.

Work on COC(=O)c1cc2ccc(OCCN(C)C(=O)OC(C)(C)C)cc2oc1=O yielded an Insulin-sensitizing activity (3T3-L1 [2]) of 115%.

COC(=O)C1Cc2cc(OCCc3nc(-c4ccccc4)oc3C)ccc2OC1=O (stereo not drawn) was tested, and the Insulin-sensitizing activity (3T3-L1 [2]) was 28%.

In the case of CN(CCOc1ccc(CC2SC(=O)NC2=O)cc1)c1ccccn1 (stereo not drawn) [ROSIGLITAZONE], the EC30 (3T3-L1 [1]) is reported as 20.3 nM and the Insulin-sensitizing activity (3T3-L1 [2]) is reported as 100%.

Compound COC(=O)c1cc2cc(OCCc3nc(-c4ccccc4)oc3C)ccc2oc1=O has an Insulin-sensitizing activity (3T3-L1 [2]) of 33%.

With Cc1oc(-c2ccccc2)nc1CCOc1ccc2cc(C(=O)O)c(=O)oc2c1 the EC30 (3T3-L1 [1]) was 300 nM and the Insulin-sensitizing activity (3T3-L1 [2]) was 103%.

CCc1ccc(CCOc2ccc3cc(C(=O)OC)c(=O)oc3c2)nc1 showed an Insulin-sensitizing activity (3T3-L1 [2]) of 46%.

In the case of CCc1ccc(CCOc2ccc3c(c2)OC(=O)C(C(=O)OC)C3)nc1 (stereo not drawn), the Insulin-sensitizing activity (3T3-L1 [2]) is reported as 27%.

For Cc1oc(-c2ccccc2)nc1CCOc1ccc2cc(C(=O)OC(C)(C)C)c(=O)oc2c1, the EC30 (3T3-L1 [1]) was 382 nM and the Insulin-sensitizing activity (3T3-L1 [2]) was 89%.

Compound COC(=O)c1cc2ccc(OCCn3ccc4ccccc43)cc2oc1=O has an EC30 (3T3-L1 [1]) of 344 nM and an Insulin-sensitizing activity (3T3-L1 [2]) of 108%.

Work on COC(=O)c1cc2ccc(OCCc3nc(-c4ccccc4)oc3C)cc2oc1=O yielded an EC30 (3T3-L1 [1]) of 8 nM and an Insulin-sensitizing activity (3T3-L1 [2]) of 129%.
